Measurements from US9228009B2, “Multi-hierarchical self-assembly of a collagen mimetic peptide” (WILLIAM MARSH RICE UNIVERSITY, priority 2011, dated 2016).
Non-standard residues stand in square brackets, D forms with d. Residues, ends and D or L forms follow the SMILES beside them. Hyp = O=C(O)[C@@H]1C[C@@H](O)CN1

Key:
[1] = system: collagenase type IV; experiment: Collagenase degradation study of hydrogels; type: in vitro ADME; conditions: for hydrogel degradation state: w/ collagenase
Protocol: (§1) As a simple functional test of the collagen hydrogel mimetic, we compared its ability to be broken down by collagenase (type IV, Invitrogen) the primary component of which is MMP2, a protease known to specifically cleave between the X and Gly residues of an X-Y-Gly repeat found in a triple helix.^42 (Pro-Lys-Gly)4(Pro-Hyp-Gly)4(Asp-Hyp-Gly)4 hydrogels were prepared at a concentration of 2.0% by weight in phosphate buffer and treated with either collagenase in HBSS (Hank's Balanced Salt Solution) or HBSS alone. The samples were allowed to incubate at room temperature (approximately 20° C.), 30° C. and 37° C. Hydrogels of rat-tail collagen were prepared in the same fashion with and without collagenase.
(§2) Using the previously described gelation procedure, gels of (Pro-Lys-Gly)4(Pro-Hyp-Gly)4(Asp-Hyp-Gly)4 were prepared at a concentration of 2.0% by weight in 10 mM phosphate buffer. Directly after annealing, 100 μl of solution was pipetted into two wells of a 96-well cell culture plate and allowed to incubate at room temperature overnight. A 0.3% by weight collagenase type IV solution was prepared by dissolving 15.0 mg of non-sterile lyophilized enzyme into 5 ml of Hank's Balanced Salt Solution (HBSS). The solution was then filter sterilized using a 0.2 μm filter attached to a syringe. Enzyme and buffer were from Invitrogen (Carlsbad, Calif.). After gelation was complete, 150 μl of collagenase was added on top of one well and 150 μL of HBSS was added on the other serving as a control. Three plates were prepared and incubated at room temperature (about 20° C.), 30° C. and 37° C. Each condition was observed and imaged at 0, 1, 4, 6, 12, 24 and 48 hours after addition of the collagenase or HBSS. Plates containing rat-tail collagen gels at a concentration of 3.0% by weight were prepared and analyzed in an identical manner. Table 1 and Table 2 below show collagenase mediated degradation of (Pro-Lys-Gly)4(Pro-Hyp-Gly)4(Asp-Hyp-Gly)4 and rat-tail collagen hydrogels, respectively. Samples were tested at room temperature (approximately 20° C., 30° C. and 37° C.) with and without collagenase. […] Control samples of (Pro-Lys-Gly)4(Pro-Hyp-Gly)4(Asp-Hyp-Gly)4 at room temperature and 30° C. were intact after 48 hours. However at 37° C. the hydrogels dissolved after 24 hours due to the proximity of this temperature to the triple helices melting temperature.

[2] = Hydrogel control in HBSS without collagenase; type: physicochemical; conditions: no collagenase (HBSS), 2.0% by weight gel
Protocol: as §1, §2

[3] = Circular dichroism thermal unfolding; type: physicochemical
Protocol: All peptide concentrations were measured by weight. All samples were adjusted to pH 7 with sodium hydroxide prior to the addition of buffer and then annealed for 15 minutes at 85° C. Lastly, the samples were incubated at room temperature for at least 12 hours prior to characterization to ensure complete assembly. Time course rheological studies are given in FIG. 13 to support this time scale.
All spectra and thermal unfolding studies were performed on a Jasco J-810 spectropolarimeter equipped with a Peltier temperature control system. Quartz cells were used with pathlengths of 0.01 cm and 0.1 cm depending on the peptide concentration and buffer. Spectra were collected from 190-250 nm. Melting experiments were performed from 5 to 85° C., monitoring at 225 nm, and the first derivative of the thermal unfolding curve was taken in order to determine the melting temperature of the sample. The molar residual ellipticity (MRE) is calculated from the measured ellipticity using the equation:
[formula] where θ is the ellipticity in mdeg, m is the molecular weight in g/mol, c is the concentration in mg/ml, l is the pathlength of the cuvette in cm, and nr is the number of amino acids in the peptide. The spectrum for 1.0% by weight is only shown from 250-205 nm due to the increase in background noise for higher concentration samples at lower wavelengths.

[4] = room temperature (approximately 20° C.)

Compound: NCCCC[C@H](NC(=O)[C@@H]1CCCN1)C(=O)NCC(=O)N1CCC[C@H]1C(=O)N[C@@H](CCCCN)C(=O)NCC(=O)N1CCC[C@H]1C(=O)N[C@@H](CCCCN)C(=O)NCC(=O)N1CCC[C@H]1C(=O)N[C@@H](CCCCN)C(=O)NCC(=O)N1CCC[C@H]1C(=O)N1C[C@H](O)C[C@H]1C(=O)NCC(=O)N1CCC[C@H]1C(=O)N1C[C@H](O)C[C@H]1C(=O)NCC(=O)N1CCC[C@H]1C(=O)N1C[C@H](O)C[C@H]1C(=O)NCC(=O)N1CCC[C@H]1C(=O)N1C[C@H](O)C[C@H]1C(=O)NCC(=O)N[C@@H](CC(=O)O)C(=O)N1C[C@H](O)C[C@H]1C(=O)NCC(=O)N[C@@H](CC(=O)O)C(=O)N1C[C@H](O)C[C@H]1C(=O)NCC(=O)N[C@@H](CC(=O)O)C(=O)N1C[C@H](O)C[C@H]1C(=O)NCC(=O)N[C@@H](CC(=O)O)C(=O)N1C[C@H](O)C[C@H]1C(=O)NCC(=O)O [(Pro-Lys-Gly)4(Pro-Hyp-Gly)4(Asp-Hyp-Gly)4] (H-PKGPKGPKGPKGP[Hyp]GP[Hyp]GP[Hyp]GP[Hyp]GD[Hyp]GD[Hyp]GD[Hyp]GD[Hyp]G-OH; N-terminus assumed)
- time after which hydrogel treated with collagenase was fully dissolved ([1]; 30° C.): 4 h
- time after which hydrogel treated with collagenase was fully dissolved ([1]; 37° C.): 1 h
- time after which hydrogel treated with collagenase was fully dissolved [1, 4]: 4 h
- hydrogel degradation state ([1]; 20° C., 0 h, 2.0% by weight gel): intact
- hydrogel degradation state ([1]; 20° C., 1 h, 2.0% by weight gel): intact
- hydrogel degradation state ([1]; 20° C., 4 h, 2.0% by weight gel): dissolved
- hydrogel degradation state ([1]; 20° C., 6 h, 2.0% by weight gel): dissolved
- hydrogel degradation state ([1]; 20° C., 12 h, 2.0% by weight gel): dissolved
- hydrogel degradation state ([1]; 20° C., 24 h, 2.0% by weight gel): dissolved
- hydrogel degradation state ([1]; 20° C., 48 h, 2.0% by weight gel): dissolved
- hydrogel degradation state ([1]; 30° C., 0 h, 2.0% by weight gel): intact
- hydrogel degradation state ([1]; 30° C., 1 h, 2.0% by weight gel): intact
- hydrogel degradation state ([1]; 30° C., 4 h, 2.0% by weight gel): dissolved
- hydrogel degradation state ([1]; 30° C., 6 h, 2.0% by weight gel): dissolved
- hydrogel degradation state ([1]; 30° C., 12 h, 2.0% by weight gel): dissolved
- hydrogel degradation state ([1]; 30° C., 24 h, 2.0% by weight gel): dissolved
- hydrogel degradation state ([1]; 30° C., 48 h, 2.0% by weight gel): dissolved
- hydrogel degradation state ([1]; 37° C., 0 h, 2.0% by weight gel): intact
- hydrogel degradation state ([1]; 37° C., 1 h, 2.0% by weight gel): dissolved
- hydrogel degradation state ([1]; 37° C., 4 h, 2.0% by weight gel): dissolved
- hydrogel degradation state ([1]; 37° C., 6 h, 2.0% by weight gel): dissolved
- hydrogel degradation state ([1]; 37° C., 12 h, 2.0% by weight gel): dissolved
- hydrogel degradation state ([1]; 37° C., 24 h, 2.0% by weight gel): dissolved
- hydrogel degradation state ([1]; 37° C., 48 h, 2.0% by weight gel): dissolved
- hydrogel degradation state ([2]; 20° C., 0 h): intact
- hydrogel degradation state ([2]; 20° C., 1 h): intact
- hydrogel degradation state ([2]; 20° C., 4 h): intact
- hydrogel degradation state ([2]; 20° C., 6 h): intact
- hydrogel degradation state ([2]; 20° C., 12 h): intact
- hydrogel degradation state ([2]; 20° C., 24 h): intact
- hydrogel degradation state ([2]; 20° C., 48 h): intact
- hydrogel degradation state ([2]; 30° C., 0 h): intact
- hydrogel degradation state ([2]; 30° C., 1 h): intact
- hydrogel degradation state ([2]; 30° C., 4 h): intact
- hydrogel degradation state ([2]; 30° C., 6 h): intact
- hydrogel degradation state ([2]; 30° C., 12 h): intact
- hydrogel degradation state ([2]; 30° C., 24 h): intact
- hydrogel degradation state ([2]; 30° C., 48 h): intact
- hydrogel degradation state ([2]; 37° C., 0 h): intact
- hydrogel degradation state ([2]; 37° C., 1 h): intact
- hydrogel degradation state ([2]; 37° C., 4 h): intact
- hydrogel degradation state ([2]; 37° C., 6 h): intact
- hydrogel degradation state ([2]; 37° C., 12 h): intact
- hydrogel degradation state ([2]; 37° C., 24 h): dissolved
- hydrogel degradation state ([2]; 37° C., 48 h): dissolved
- triple helix melting temperature ([3]; 10 mM phosphate buffer, pH 7, first derivative of CD unfolding curve at 225 nm): 40-41 °C
- triple helix cooperative transition (melting) temperature ([3]; 1.0% by weight in phosphate): 41 °C
- melting transition ([3]; gel-forming samples in additional buffers (water, Tris, PBS), pH 7): 40-41 °C
- melting temperature ([3]; samples that did not form gels in additional buffers (water, Tris, PBS), pH 7): around 23 °C

Compound: Rat-tail Collagen: collagen type I harvested from rat-tail tendon; hydrogels at 3.0% by weight used as comparator [reference compound]
- time after which hydrogel treated with collagenase was fully dissolved ([1]; 30° C.): 4 h
- time after which hydrogel treated with collagenase was fully dissolved ([1]; 37° C.): 1 h
- time after which hydrogel treated with collagenase was fully dissolved [1, 4]: 4 h
- hydrogel degradation state ([1]; 20° C., 0 h, 3.0% by weight gel): intact
- hydrogel degradation state ([1]; 20° C., 1 h, 3.0% by weight gel): intact
- hydrogel degradation state ([1]; 20° C., 4 h, 3.0% by weight gel): dissolved
- hydrogel degradation state ([1]; 20° C., 6 h, 3.0% by weight gel): dissolved
- hydrogel degradation state ([1]; 20° C., 12 h, 3.0% by weight gel): dissolved
- hydrogel degradation state ([1]; 20° C., 24 h, 3.0% by weight gel): dissolved
- hydrogel degradation state ([1]; 20° C., 48 h, 3.0% by weight gel): dissolved
- hydrogel degradation state ([1]; 30° C., 0 h, 3.0% by weight gel): intact
- hydrogel degradation state ([1]; 30° C., 1 h, 3.0% by weight gel): intact
- hydrogel degradation state ([1]; 30° C., 4 h, 3.0% by weight gel): dissolved
- hydrogel degradation state ([1]; 30° C., 6 h, 3.0% by weight gel): dissolved
- hydrogel degradation state ([1]; 30° C., 12 h, 3.0% by weight gel): dissolved
- hydrogel degradation state ([1]; 30° C., 24 h, 3.0% by weight gel): dissolved
- hydrogel degradation state ([1]; 30° C., 48 h, 3.0% by weight gel): dissolved
- hydrogel degradation state ([1]; 37° C., 0 h, 3.0% by weight gel): intact
- hydrogel degradation state ([1]; 37° C., 1 h, 3.0% by weight gel): dissolved
- hydrogel degradation state ([1]; 37° C., 4 h, 3.0% by weight gel): dissolved
- hydrogel degradation state ([1]; 37° C., 6 h, 3.0% by weight gel): dissolved
- hydrogel degradation state ([1]; 37° C., 12 h, 3.0% by weight gel): dissolved
- hydrogel degradation state ([1]; 37° C., 24 h, 3.0% by weight gel): dissolved
- hydrogel degradation state ([1]; 37° C., 48 h, 3.0% by weight gel): dissolved
